# Numbers after ± are expanded uncertainties.
# Assays:
# [1] = 332.7 K; 101 kPa; Liquid
# [2] = xn = mol fraction of the nth substance listed; conditions: 332.7 K, 101 kPa, Liquid
structure (smiles),measurement,setting,value
CC(C)CCO [3-methylbutan-1-ol],mass density,[1],778.14 ± 0.37 kg/m3
CC(C)CCO [3-methylbutan-1-ol] + CCOC(C)=O,mass density,[2]; x2 = 0,778.14 ± 0.37 kg/m3
same,mass density,[2]; x2 = 0.0501,780.94 ± 0.36 kg/m3
same,mass density,[2]; x2 = 0.1087,784.25 ± 0.36 kg/m3
same,mass density,[2]; x2 = 0.1714,788.1 ± 0.36 kg/m3
same,mass density,[2]; x2 = 0.2296,791.81 ± 0.35 kg/m3
same,mass density,[2]; x2 = 0.29,795.6 ± 0.35 kg/m3
same,mass density,[2]; x2 = 0.3561,799.89 ± 0.34 kg/m3
same,mass density,[2]; x2 = 0.4088,803.56 ± 0.34 kg/m3
same,mass density,[2]; x2 = 0.4659,807.59 ± 0.34 kg/m3
same,mass density,[2]; x2 = 0.5339,812.5 ± 0.33 kg/m3
same,mass density,[2]; x2 = 0.5891,816.6 ± 0.33 kg/m3
same,mass density,[2]; x2 = 0.6597,821.96 ± 0.32 kg/m3
same,mass density,[2]; x2 = 0.7088,825.91 ± 0.31 kg/m3
same,mass density,[2]; x2 = 0.7693,830.72 ± 0.31 kg/m3
same,mass density,[2]; x2 = 0.8286,835.79 ± 0.3 kg/m3
same,mass density,[2]; x2 = 0.8882,840.96 ± 0.3 kg/m3
same,mass density,[2]; x2 = 0.9488,846.43 ± 0.29 kg/m3
CCOC(C)=O [ethyl acetate],mass density,[1],851.36 ± 0.28 kg/m3
CCOC(C)=O [ethyl acetate] + CC(C)CCO,mass density,[2]; x1 = 1,851.36 ± 0.28 kg/m3
